{"source": "patent US6479435B1", "about": "“Diaryl ethers and processes for their preparation and herbicidal and desiccant compositions containing them” (ISK Americas Incorporated, priority 1997, dated 2002)", "type_in_all_cases": "in vivo", "key": {"[1]": {"system": "Johnsongrass (Sorghum halepense, SORHA)", "test": "Pre-emerge greenhouse herbicide test, phytotoxicity rating", "conditions": "14 days after application, rating scale 0-100", "in_short": "(§1)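 Visual 0–100 injury rating (100 = all plants dead) taken 14 days after treatment. Rates of 125–1000 g ai/ha in acetone, 187 l/ha, were sprayed onto soil one day post-sowing; pots were surface-watered to incorporate, then bottom-watered.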"}, "[2]": {"system": "barnyardgrass (Echinochloa crusgalli, ECHCG)", "test": "Pre-emerge greenhouse herbicide test, phytotoxicity rating", "conditions": "14 days after application, rating scale 0-100", "in_short": "as §1"}, "[3]": {"system": "common ragweed (Ambrosia artemisiifolia L., AMBEL)", "test": "Pre-emerge greenhouse herbicide test, phytotoxicity rating", "conditions": "14 days after application, rating scale 0-100", "in_short": "as §1"}, "[4]": {"system": "green foxtail (Setaria viridis, SETVI)", "test": "Pre-emerge greenhouse herbicide test, phytotoxicity rating", "conditions": "14 days after application, rating scale 0-100", "in_short": "as §1"}, "[5]": {"system": "ivyleaf morningglory (Ipomoea hederacea, IPOHE)", "test": "Pre-emerge greenhouse herbicide test, phytotoxicity rating", "conditions": "14 days after application, rating scale 0-100", "in_short": "as §1"}, "[6]": {"system": "lambsquarters (Chenopodium album, CHEAL)", "test": "Pre-emerge greenhouse herbicide test, phytotoxicity rating", "conditions": "14 days after application, rating scale 0-100", "in_short": "as §1"}, "[7]": {"system": "large crabgrass (Digitaria sanguinalis, DIGSA)", "test": "Pre-emerge greenhouse herbicide test, phytotoxicity rating", "conditions": "14 days after application, rating scale 0-100", "in_short": "as §1"}, "[8]": {"system": "redroot pigweed (Amaranthus retroflexus, AMARE)", "test": "Pre-emerge greenhouse herbicide test, phytotoxicity rating", "conditions": "14 days after application, rating scale 0-100", "in_short": "as §1"}, "[9]": {"system": "sicklepod (Cassia obtusifolia, CASOB)", "test": "Pre-emerge greenhouse herbicide test, phytotoxicity rating", "conditions": "14 days after application, rating scale 0-100", "in_short": "as §1"}, "[10]": {"system": "velvetleaf (Abutilon theophrasti, ABUTH)", "test": "Pre-emerge greenhouse herbicide test, phytotoxicity rating", "conditions": "14 days after application, rating scale 0-100", "in_short": "as §1"}, "[11]": {"system": "field corn (Zea mays L., var. Dekalb 535, CORN)", "test": "Pre-emerge greenhouse test, crop damage rating", "conditions": "14 days after application, rating scale 0-100", "in_short": "as §1"}, "[12]": {"system": "upland rice (Oryza sp., var.Tebonnet, RICE)", "test": "Pre-emerge greenhouse test, crop damage rating", "conditions": "14 days after application, rating scale 0-100", "in_short": "as §1"}, "[13]": {"system": "soybean (Glycine max L., var. Pella 86, SOY)", "test": "Pre-emerge greenhouse test, crop damage rating", "conditions": "14 days after application, rating scale 0-100", "in_short": "as §1"}, "[14]": {"system": "common ragweed (Ambrosia artemisiifolia L., AMBEL)", "test": "Post-emerge greenhouse herbicide test, phytotoxicity rating", "conditions": "14 days after application", "in_short": "(§2)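 Scores use a 0 (no damage) to 100 (complete kill) scale, taken 14 days after a foliar spray. Acetone solutions with 0.25% v/v non-ionic surfactant were applied by track sprayer at 187 l/ha and 63-1000 g ai/ha to bottom-watered 2-3 leaf plants.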"}, "[15]": {"system": "Johnsongrass (Sorghum halepense, SORHA)", "test": "Post-emerge greenhouse herbicide test, phytotoxicity rating", "conditions": "14 days after application", "in_short": "as §2"}, "[16]": {"system": "barnyardgrass (Echinochloa crusgalli, ECHCG)", "test": "Post-emerge greenhouse herbicide test, phytotoxicity rating", "conditions": "14 days after application", "in_short": "as §2"}, "[17]": {"system": "green foxtail (Setaria viridis, SETVI)", "test": "Post-emerge greenhouse herbicide test, phytotoxicity rating", "conditions": "14 days after application", "in_short": "as §2"}, "[18]": {"system": "ivyleaf morningglory (Ipomoea hederacea, IPOHE)", "test": "Post-emerge greenhouse herbicide test, phytotoxicity rating", "conditions": "14 days after application", "in_short": "as §2"}, "[19]": {"system": "lambsquarters (Chenopodium album, CHEAL)", "test": "Post-emerge greenhouse herbicide test, phytotoxicity rating", "conditions": "14 days after application", "in_short": "as §2"}, "[20]": {"system": "large crabgrass (Digitaria sanguinalis, DIGSA)", "test": "Post-emerge greenhouse herbicide test, phytotoxicity rating", "conditions": "14 days after application", "in_short": "as §2"}, "[21]": {"system": "redroot pigweed (Amaranthus retroflexus, AMARE)", "test": "Post-emerge greenhouse herbicide test, phytotoxicity rating", "conditions": "14 days after application", "in_short": "as §2"}, "[22]": {"system": "sicklepod (Cassia obtusifolia, CASOB)", "test": "Post-emerge greenhouse herbicide test, phytotoxicity rating", "conditions": "14 days after application", "in_short": "as §2"}, "[23]": {"system": "velvetleaf (Abutilon theophrasti, ABUTH)", "test": "Post-emerge greenhouse herbicide test, phytotoxicity rating", "conditions": "14 days after application", "in_short": "as §2"}, "[24]": {"system": "field corn (Zea mays L., var. Dekalb 535, CORN)", "test": "Post-emerge greenhouse test, crop damage rating", "conditions": "14 days after application", "in_short": "as §2"}, "[25]": {"system": "upland rice (Oryza sp., var.Tebonnet, RICE)", "test": "Post-emerge greenhouse test, crop damage rating", "conditions": "14 days after application", "in_short": "as §2"}, "[26]": {"system": "soybean (Glycine max L., var. Pella 86, SOY)", "test": "Post-emerge greenhouse test, crop damage rating", "conditions": "14 days after application", "in_short": "as §2"}}}
{"smiles": "Cn1c(C(F)(F)F)nc(-c2cc(Oc3ncccn3)c(Cl)cc2F)c1Cl", "note": "[Compound 2-3]", "values": [{"measurement": "phytotoxicity rating SORHA", "setting": "[1]; 125 g ai/ha", "value": 100}, {"measurement": "phytotoxicity rating SORHA", "setting": "[1]; 500 g ai/ha", "value": 100}, {"measurement": "phytotoxicity rating ECHCG", "setting": "[2]; 125 g ai/ha", "value": 80}, {"measurement": "phytotoxicity rating ECHCG", "setting": "[2]; 500 g ai/ha", "value": 100}, {"measurement": "phytotoxicity rating AMBEL", "setting": "[3]; 125 g ai/ha", "value": 35}, {"measurement": "phytotoxicity rating AMBEL", "setting": "[3]; 500 g ai/ha", "value": 90}, {"measurement": "phytotoxicity rating SETVI", "setting": "[4]; 125 g ai/ha", "value": 95}, {"measurement": "phytotoxicity rating SETVI", "setting": "[4]; 500 g ai/ha", "value": 100}, {"measurement": "phytotoxicity rating IPOHE", "setting": "[5]; 125 g ai/ha", "value": 20}, {"measurement": "phytotoxicity rating IPOHE", "setting": "[5]; 500 g ai/ha", "value": 100}, {"measurement": "phytotoxicity rating CHEAL", "setting": "[6]; 125 g ai/ha", "value": 100}, {"measurement": "phytotoxicity rating CHEAL", "setting": "[6]; 500 g ai/ha", "value": 100}, {"measurement": "phytotoxicity rating DIGSA", "setting": "[7]; 125 g ai/ha", "value": 100}, {"measurement": "phytotoxicity rating DIGSA", "setting": "[7]; 500 g ai/ha", "value": 100}, {"measurement": "phytotoxicity rating AMARE", "setting": "[8]; 125 g ai/ha", "value": 100}, {"measurement": "phytotoxicity rating AMARE", "setting": "[8]; 500 g ai/ha", "value": 100}, {"measurement": "phytotoxicity rating CASOB", "setting": "[9]; 125 g ai/ha", "value": 30}, {"measurement": "phytotoxicity rating CASOB", "setting": "[9]; 500 g ai/ha", "value": 100}, {"measurement": "phytotoxicity rating ABUTH", "setting": "[10]; 125 g ai/ha", "value": 100}, {"measurement": "phytotoxicity rating ABUTH", "setting": "[10]; 500 g ai/ha", "value": 100}, {"measurement": "crop damage rating CORN", "setting": "[11]; 125 g ai/ha", "value": 25}, {"measurement": "crop damage rating CORN", "setting": "[11]; 500 g ai/ha", "value": 35}, {"measurement": "crop damage rating RICE", "setting": "[12]; 125 g ai/ha", "value": 30}, {"measurement": "crop damage rating RICE", "setting": "[12]; 500 g ai/ha", "value": 55}, {"measurement": "crop damage rating SOY", "setting": "[13]; 125 g ai/ha", "value": 50}, {"measurement": "crop damage rating SOY", "setting": "[13]; 500 g ai/ha", "value": 25}, {"measurement": "AMBEL phytotoxicity rating (0-100)", "setting": "[14]; 63 g al/ha", "value": 30}, {"measurement": "AMBEL phytotoxicity rating (0-100)", "setting": "[14]; 500 g al/ha", "value": 60}, {"measurement": "SORHA phytotoxicity rating (0-100)", "setting": "[15]; 63 g al/ha", "value": 80}, {"measurement": "SORHA phytotoxicity rating (0-100)", "setting": "[15]; 500 g al/ha", "value": 95}, {"measurement": "ECHCG phytotoxicity rating (0-100)", "setting": "[16]; 63 g al/ha", "value": 30}, {"measurement": "ECHCG phytotoxicity rating (0-100)", "setting": "[16]; 500 g al/ha", "value": 95}, {"measurement": "SETVI phytotoxicity rating (0-100)", "setting": "[17]; 63 g al/ha", "value": 100}, {"measurement": "SETVI phytotoxicity rating (0-100)", "setting": "[17]; 500 g al/ha", "value": 100}, {"measurement": "IPOHE phytotoxicity rating (0-100)", "setting": "[18]; 63 g al/ha", "value": 100}, {"measurement": "IPOHE phytotoxicity rating (0-100)", "setting": "[18]; 500 g al/ha", "value": 100}, {"measurement": "CHEAL phytotoxicity rating (0-100)", "setting": "[19]; 63 g al/ha", "value": 90}, {"measurement": "CHEAL phytotoxicity rating (0-100)", "setting": "[19]; 500 g al/ha", "value": 100}, {"measurement": "DIGSA phytotoxicity rating (0-100)", "setting": "[20]; 63 g al/ha", "value": 0}, {"measurement": "DIGSA phytotoxicity rating (0-100)", "setting": "[20]; 500 g al/ha", "value": 80}, {"measurement": "AMARE phytotoxicity rating (0-100)", "setting": "[21]; 63 g al/ha", "value": 100}, {"measurement": "AMARE phytotoxicity rating (0-100)", "setting": "[21]; 500 g al/ha", "value": 100}, {"measurement": "CASOB phytotoxicity rating (0-100)", "setting": "[22]; 63 g al/ha", "value": 30}, {"measurement": "CASOB phytotoxicity rating (0-100)", "setting": "[22]; 500 g al/ha", "value": 70}, {"measurement": "ABUTH phytotoxicity rating (0-100)", "setting": "[23]; 63 g al/ha", "value": 95}, {"measurement": "ABUTH phytotoxicity rating (0-100)", "setting": "[23]; 500 g al/ha", "value": 100}, {"measurement": "CORN crop damage rating (0-100)", "setting": "[24]; 63 g al/ha", "value": 30}, {"measurement": "CORN crop damage rating (0-100)", "setting": "[24]; 500 g al/ha", "value": 80}, {"measurement": "RICE crop damage rating (0-100)", "setting": "[25]; 63 g al/ha", "value": 40}, {"measurement": "RICE crop damage rating (0-100)", "setting": "[25]; 500 g al/ha", "value": 90}, {"measurement": "SOY crop damage rating (0-100)", "setting": "[26]; 63 g al/ha", "value": 90}, {"measurement": "SOY crop damage rating (0-100)", "setting": "[26]; 500 g al/ha", "value": 90}]}
